Results on three molecules are retold here after patent publication US4500516A, “Antibacterial pharmaceutical composition” (priority 1982, dated 1985).

Usually Cmax stands for the highest concentration seen after dosing. The term Tmax denotes the time from dosing to the highest level. A word on the LD50: it is the dose expected to kill half of the subjects tested.

Where a name gives a salt, the structure may show the parent alone. Read-outs that look alike come from different tables or passages of the source.

The conditions of data set [1]: cited from earlier work.
For data set [2] the following is noted: cited from earlier work. The source holds these as a separate data set.
The conditions of data set [3]: cited from earlier work. This is another data set of the same source.
The test system of data set [4] is infectious inflammatory diseases. The following applies: prior-art drugs; cited from earlier work.
The conditions of data set [5]: rabbit, in vivo, po, 5 mg/kg, cited from earlier work; for total quantity removed, of the total quantity administered: 2880 min.
Data set [6] deals with pathogenic microorganisms. The settings on record: cited from earlier work.
For data set [7] the following is noted: cited from earlier work. This is another data set of the same source.
For data set [8] the following is noted: prior-art drugs; cited from earlier work.
The nature of data set [9]: in vivo. The settings on record: rabbit, urine, 50 mg/kg.
In data set [10] the test system is white mice. The following applies: cited from earlier work.
For data set [11], the system named is Staphylococcus aureus haemolyticus. Description: bacteriostatic concentration. The class given is cell-based.
In data set [12] the test system is Bac. mycoides. Description: microbe, parasite or virus in culture. The class given is cell-based. The settings on record: Bacillus mycoides, read-out: bacteriostatic concentration.
Data set [13] has as its system Bac. coil. Description: bacteriostatic concentration. The class given is cell-based.
The conditions of data set [14]: rabbit, in vivo, 50 mg/kg.
Data set [15] is described as follows: in vivo. The following applies: rabbit, blood.

Regarding `O=C1CN(N=CC=Cc2ccc([N+](=O)[O-])o2)C(=O)N1` [Furagin, N-[β-(5'-nitrofuryl-2')-acrylidene]-1-aminohydantoin], the solubility in water entry in data set [1] was “very poorly soluble in water”. Moreover, the pK in [2] is listed as 6. Further, in data set [3] (in vivo), the intolerance entry is reported as “in quite a number of cases, said pharmaceutical composition is observed to meet with intolerance”. Besides, the spectrum of action result in data set [4] is “wider spectrum of therapeutic action than the aforesaid Nitrofurantoin and Furadantin”. In data set [5], the “total quantity removed, of the total quantity administered” value is listed as 2.75±0.41% and the “concentrations in the urine, Furagin versus Solafur” value is reported as “roughly equal”.

On to `O=C1CN(N=Cc2ccc([N+](=O)[O-])o2)C(=O)N1` [Nitrofurantoin, 1-(5'-nitrofurfurylideneamino)-hydantoin], for which, in [6] (in words), the bacteriostatic concentration value result is “comparatively high”. Further, the intolerance result in [3] (medical practice) is on record as “Sometimes this pharmaceutical composition is observed to meet with intolerance”. Besides, in data set [7] (in vivo), the “removal from the organism” value is given as “quickly removed from the organism”. In data set [7] (oral), the “absorption from the gastrointestinal tract” value is on record as “quickly absorbable from the gastrointestinal tract”; the “drug concentration in the blood and in the urine” value is “capable of reaching a level sufficient to produce a therapeutic effect”. For the same molecule, the toxicity entry in data set [8] is given as “noticeably toxic”. Besides, the spectrum of action result in [4] is “relatively limited spectrum of action”. For the same molecule, in data set [9], the maximum concentration (Cmax) was found to be 610 µg/mL and the time of peak concentration (Tmax) was 1 h. In addition, in data set [10] (white mice, oral administration), the LD50 was 166.7 mg/kg.

As to `O=C1CN(N=CC=Cc2ccc([N+](=O)[O-])o2)C(=O)N1` [Solafur, potassium salt of N-[β-(5'-nitrofuryl-2')-acrylidene]-1-aminohydantoin], the MIC in data set [11], in [12] and in data set [13] was 2.5 µg/mL in each case. In data set [14], the “total excretion of Solafur with urine” value was 3.43 ± 0.3 mg. The “synergistic action with antibiotics” value in data set [6] (a range of antibiotics, most pathogenic microorganisms) was “capability of producing synergistic action with a range of antibiotics upon most pathogenic microorganisms”. In data set [1], the solubility in water entry was “higher than that of the aforementioned Furagin”. The “side effects on faster administration” value in data set [3] (in vivo, iv) is “headache and nausea”. Further, the intolerance result in [3] (in vivo) is “in some cases this pharmaceutical composition is observed to meet with intolerance”. Besides, the spectrum of action result in data set [4] is recorded as “broader spectrum of action compared to Furagin”. The molecule also came in with a concentration at 0.25 h in data set [15] of 2.8 µg/mL. For the same molecule, in [10] (mouse, in vivo, po), the LD50 is recorded as 390 mg/kg. The “total quantity removed, of the total quantity administered” value in [5] is 2.83±0.48%. For the same molecule, the “concentrations in the urine, Furagin versus Solafur” value in data set [5] is reported as “roughly equal”.
